Measured values reported in patent publication US20230263822A1, “MODULATION OF FACTOR 11 EXPRESSION” (Ionis Pharmaceuticals, Inc., priority 2008, published 2023).
Like-named read-outs stand apart in the source and are kept apart here. e = 2'-O-(2-methoxyethyl) (MOE); d = 2'-deoxy (DNA)

Legend:
[1] = rat, in vivo, sc, 50 mg/kg
[2] = mouse, in vivo, sc, 50 mg/kg
[3] = mouse, in vivo, sc, 50 mg/kg; remark: listed apart in the source
[4] = rat, in vivo, sc, 50 mg/kg; remark: listed apart in the source
[5] = rat, in vivo, sc, 50 mg/kg; remark: listed apart in the source
[6] = mouse, in vivo, sc, 50 mg/kg; remark: listed apart in the source

Substance | HCT [1] | Lymphocyte [1] | Neutrophil [1] | Platelets [1] | RBC [1] | WBC [1] | hemoglobin [1] | HCT [2] | Lymphocyte [2] | Neutrophil [2] | Platelets [2] | RBC [2] | WBC [2] | hemoglobin [2] | monocytes [2] | BUN [3] | ALT [4] | AST [4] | Albumin [4] | Bilirubin [4] | further results
ISIS 412225: 5-10-5 MOE gapmer GCAGCGGACGGCATTGGTGC (sugars from the 5' end e5 d10 e5, backbone and methylation of C not given here) | 42% | 13204 | 1499 | 673 | 7.4 10^6/μL | 15 10^3/μL | 13.4 g/dL | 50% | 4969 cells/μL | 1547 cells/μL | 574 10^3/μL | 9 10^6/μL | 7 10^3/μL | 15 g/dL | 293 cells/μL | 23 mg/dL | 48 IU/L | 108 IU/L | 5 | 0.15 mg/dL | BUN [5]: 23 mg/dL; Creatinine [5]: 58 mg/dL; Total urine protein [5]: 209 mg/dL; Urine protein/creatinine ratio [5]: 4.0; ALT [6]: 40 IU/L; AST [6]: 69 IU/L; Bilirubin [6]: 0.23 mg/dL; Cholesterol [6]: 128 mg/dL
ISIS 413481: 5-10-5 MOE gapmer GGTGCACAGTTTCTGGCAGG (sugars from the 5' end e5 d10 e5, backbone and methylation of C not given here) | 43% | 12707 | 1046 | 552 | 7.5 10^6/μL | 14 10^3/μL | 14.2 g/dL | 45% | 4329 cells/μL | 1904 cells/μL | 841 10^3/μL | 9 10^6/μL | 7 10^3/μL | 13 g/dL | 204 cells/μL | 23 mg/dL | 54 IU/L | 80 IU/L | 4 | 0.22 mg/dL | BUN [5]: 26 mg/dL; Creatinine [5]: 45 mg/dL; Total urine protein [5]: 148 mg/dL; Urine protein/creatinine ratio [5]: 3.6; ALT [6]: 85 IU/L; AST [6]: 143 IU/L; Bilirubin [6]: 0.18 mg/dL; Cholesterol [6]: 153 mg/dL
ISIS 413482: 5-10-5 MOE gapmer GGACGGCATTGGTGCACAGT (sugars from the 5' end e5 d10 e5, backbone and methylation of C not given here) | 40% | 11430 | 1125 | 641 | 7.1 10^6/μL | 13 10^3/μL | 13.2 g/dL | 50% | 5584 cells/μL | 1958 cells/μL | 818 10^3/μL | 10 10^6/μL | 8 10^3/μL | 15 g/dL | 275 cells/μL | 27 mg/dL | 59 IU/L | 157 IU/L | 4 | 0.14 mg/dL | BUN [5]: 23 mg/dL; Creatinine [5]: 34 mg/dL; Total urine protein [5]: 157 mg/dL; Urine protein/creatinine ratio [5]: 4.8; ALT [6]: 54 IU/L; AST [6]: 77 IU/L; Bilirubin [6]: 0.24 mg/dL; Cholesterol [6]: 138 mg/dL
ISIS 416848: MOE gapmer, nucleobases 1275 to 1318 of SEQ ID NO: 1 (Table 8) (antisense CACAGTTTCTGGCAGGCCTC; MOE gapmer, wing and gap sizes not given here) | 35% | 14316 | 1874 | 384 | 6.0 10^6/μL | 17 10^3/μL | 11.1 g/dL | 47% | 5268 cells/μL | 1264 cells/μL | 953 10^3/μL | 9 10^6/μL | 7 10^3/μL | 14 g/dL | 180 cells/μL | 23 mg/dL | 89 IU/L | 236 IU/L | 3 | 0.14 mg/dL | BUN [5]: 26 mg/dL; Creatinine [5]: 64 mg/dL; Total urine protein [5]: 231 mg/dL; Urine protein/creatinine ratio [5]: 3.9; ALT [6]: 153 IU/L; AST [6]: 153 IU/L; Bilirubin [6]: 0.19 mg/dL; Cholesterol [6]: 151 mg/dL
ISIS 416851: MOE gapmer, nucleobases 1275 to 1318 of SEQ ID NO: 1 (Table 8) (antisense GTGCACAGTTTCTGGCAGGC; MOE gapmer, wing and gap sizes not given here) | 42% | 9911 | 1001 | 734 | 7.4 10^6/μL | 11 10^3/μL | 13.7 g/dL | 47% | 4162 cells/μL | 1619 cells/μL | 984 10^3/μL | 9 10^6/μL | 6 10^3/μL | 14 g/dL | 194 cells/μL | 21 mg/dL | 64 IU/L | 91 IU/L | 4 | 0.14 mg/dL | BUN [5]: 24 mg/dL; Creatinine [5]: 70 mg/dL; Total urine protein [5]: 286 mg/dL; Urine protein/creatinine ratio [5]: 4.0; ALT [6]: 47 IU/L; AST [6]: 76 IU/L; Bilirubin [6]: 0.19 mg/dL; Cholesterol [6]: 106 mg/dL
ISIS 416852: MOE gapmer, nucleobases 1275 to 1318 of SEQ ID NO: 1 (Table 8) (antisense TGGTGCACAGTTTCTGGCAG; MOE gapmer, wing and gap sizes not given here) | 42% | 11956 | 836 | 632 | 7.2 10^6/μL | 13 10^3/μL | 13.4 g/dL | 49% | 3646 cells/μL | 1241 cells/μL | 903 10^3/μL | 9 10^6/μL | 5 10^3/μL | 14 g/dL | 189 cells/μL | 21 mg/dL | 49 IU/L | 87 IU/L | 4 | 0.15 mg/dL | BUN [5]: 25 mg/dL; Creatinine [5]: 60 mg/dL; Total urine protein [5]: 189 mg/dL; Urine protein/creatinine ratio [5]: 3.0; ALT [6]: 49 IU/L; AST [6]: 91 IU/L; Bilirubin [6]: 0.16 mg/dL; Cholesterol [6]: 125 mg/dL
ISIS 416856: MOE gapmer, nucleobases 1275 to 1318 of SEQ ID NO: 1 (Table 8) (antisense GGCATTGGTGCACAGTTTCT; MOE gapmer, wing and gap sizes not given here) | 43% | 14328 | 3280 | 740 | 7.7 10^6/μL | 19 10^3/μL | 14.1 g/dL | 47% | 3622 cells/μL | 1292 cells/μL | 753 10^3/μL | 9 10^6/μL | 5 10^3/μL | 14 g/dL | 151 cells/μL | 21 mg/dL | 123 IU/L | 222 IU/L | 4 | 0.13 mg/dL | BUN [5]: 23 mg/dL; Creatinine [5]: 48 mg/dL; Total urine protein [5]: 128 mg/dL; Urine protein/creatinine ratio [5]: 2.7; ALT [6]: 130 IU/L; AST [6]: 129 IU/L; Bilirubin [6]: 0.23 mg/dL; Cholesterol [6]: 109 mg/dL
ISIS 416859: MOE gapmer, nucleobases 1275 to 1318 of SEQ ID NO: 1 (Table 8) (antisense GACGGCATTGGTGCACAGTT; MOE gapmer, wing and gap sizes not given here) | 45% | 14323 | 1414 | 853 | 7.8 10^6/μL | 16 10^3/μL | 14.0 g/dL | 49% | 4363 cells/μL | 1561 cells/μL | 826 10^3/μL | 10 10^6/μL | 6 10^3/μL | 15 g/dL | 229 cells/μL | 18 mg/dL | 114 IU/L | 206 IU/L | 5 | 0.21 mg/dL | BUN [5]: 24 mg/dL; Creatinine [5]: 44 mg/dL; Total urine protein [5]: 144 mg/dL; Urine protein/creatinine ratio [5]: 3.3; ALT [6]: 214 IU/L; AST [6]: 293 IU/L; Bilirubin [6]: 0.20 mg/dL; Cholesterol [6]: 160 mg/dL
